Laboratory results published in US20070244138A1, “Mercaptoimidazoles as Ccr2 Receptor Antagonists” (JANSSEN PHARMACEUTICA N.V., priority 2004, published 2007).

Biological target: T1, CCR2 receptor (Homo sapiens, UniProt P41597)
T1 construct: host or cells: THP-1 (human monocytic cell line)
T1 sequence (P41597 1-360 isoform P41597-2): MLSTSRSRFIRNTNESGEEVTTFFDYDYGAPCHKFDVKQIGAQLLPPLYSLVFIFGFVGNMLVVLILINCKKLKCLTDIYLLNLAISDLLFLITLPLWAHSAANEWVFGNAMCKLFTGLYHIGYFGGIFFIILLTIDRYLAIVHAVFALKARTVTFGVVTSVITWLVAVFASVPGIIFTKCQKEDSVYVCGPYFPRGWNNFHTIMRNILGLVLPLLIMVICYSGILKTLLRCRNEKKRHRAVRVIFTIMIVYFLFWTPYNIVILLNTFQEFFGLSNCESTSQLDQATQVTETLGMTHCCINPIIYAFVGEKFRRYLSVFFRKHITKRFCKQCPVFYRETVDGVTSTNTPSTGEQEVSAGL
Test: Inhibition of MCP-1 induced Ca-flux in human THP-1 cells
Type: cell-based
Details: -log IC50 (molar), inhibition of specific MCP-1 induced Ca2+ flux, 10^-7 M hMCP-1, 20 min pre-incubation, FLIPR
Protocol: D. Pharmacological Example Inhibition of MCP-1 Induced Ca-Flux in Human THP-1 Cells
MCP-1 binding to the CCR2 receptor induces a rapid and transient intracellular release of Ca^2+ (secondary messenger) in several cell lines (Charo et al, PNAS 1994). Free Ca^2+ levels can be measured using a Ca^2+ sensitive dye. When the CCR2 receptor is blocked with a CCR2 receptor antagonist, the MCP-1 induced release of Ca^2+ is inhibited.
Human THP-1 cells (monocytic cell line, ATCC TIB-202) were cultured in RPMI 1640 medium supplemented with 10% fetal calf serum (FCS), 1% L-Glutamine, penicillin (50 U/ml) and streptomycin (50 μg/ml) (all GIBCO BRL, Gent). After centrifugation, cells were loaded for 30 minutes with the Ca^2+ sensitive fluorescent dye Fluo-3 AM (Molecular Probes, Leiden, Netherlands) (2 million cells/ml in RPMI medium containing 4 μM Fluo-3 AM, 20 mM HEPES, 0.1% Bovine Serum Albumin (BSA) and 5 mM probenecid). Excess dye was removed by 3-fold washing with buffer (5 mM HEPES, 140 mM NaCl, 1 mM MgCl2, 5 mN KCl, 10 mM glucose, 2.5 mM probenecid, 1.25 mM CaCl2, 0.1% BSA; all further incubations were done in this buffer). Cells were plated at a density of 150 000 cells/well in dark-wall 96-well plates (Costar, Cambridge, Mass.) and sedimented by centrifugation (1 minute). The cells were pre-incubated for 20 minutes with test compound Then, 10^−7 M hMCP-1 (Bachem, Bubendorf, Switserland) was added. Changes in intracellular free Ca^2+ concentration were measured using the Fluorescent Imaging Plate Reader (FLIPR, Molecular Devices, Munchen, Germany). Fluorescence was recorded every second from 10 seconds before the addition of the MCP-1 till 2 minutes after the addition (first minute: 60 records with 1 second intervals, second minute 20 records with 3 second intervals). The maximal fluorescence obtained during this time frame was used for further calculations.
Table 4 reports pIC50 values obtained in the above-described test for compounds of formula (I). pIC50 defines −log IC5o wherein IC50 is the molar concentration of the test compound which inhibits 50% of specific MCP-1 induced Ca^2+ flux.

Row | Compound | IC50 [nM]
1 | CCC(c1ccc(Cl)c(Cl)c1)n1c(-c2ncn[nH]2)c[nH]c1=S (stereo not shown) [Compound 12] | 398
2 | CCC(c1ccc(C(F)(F)F)c(F)c1)n1c(-c2nc(C)no2)c[nH]c1=S (stereo not shown) [Compound 26] | 219
3 | CCC(c1ccc(Cl)c(Cl)c1)n1c(-c2nnc(N)o2)cnc1S (stereo not shown) [Compound 9] | 33.1
4 | CCC(c1ccc(Cl)c(Cl)c1)n1c(-c2nc(C)no2)cnc1S (stereo not shown) [Compound 5] | 200
5 | CCC(c1ccc(Cl)c(Cl)c1)n1c(-c2nnc(C)o2)c[nH]c1=S (stereo not shown) [Compound 14] | 417

More lines, now with the values ahead:

Row | IC50 [nM] | Compound
6 | 631 | CCC(c1ccc(Cl)c(Cl)c1)n1c(-c2ccnc(N3CCNCC3)n2)c[nH]c1=S (stereo not shown) [Compound 24]
7 | 832 | CCC(c1ccc(Cl)c(Cl)c1)n1c(-c2ccnc(C)n2)c[nH]c1=S (stereo not shown) [Compound 19]
8 | 35.5 | CCC(c1ccc(Cl)c(Cl)c1)n1c(-c2ccnc(N)n2)c[nH]c1=S (stereo not shown) [Compound 1]
9 | 41.7 | CCC(c1ccc(Cl)c(Cl)c1)n1c(-c2ccnc(NC)n2)c[nH]c1=S (stereo not shown) [Compound 20]
10 | 34.7 | CCC(c1ccc(Cl)c(Cl)c1)n1c(-c2ccnc(NCCO)n2)c[nH]c1=S (stereo not shown) [Compound 21]
11 | 724 | CCC(c1ccc(Cl)c(Cl)c1)n1c(-c2cc[nH]n2)c[nH]c1=S (stereo not shown) [Compound 11]

Biological target: T2, CCR2B (Homo sapiens, UniProt P41597)
T2 construct: expressed in transfected cells; host or cells: CHO cells (membrane preparation)
T2 sequence (P41597 1-360 isoform P41597-2): T1 sequence (P41597 1-360 isoform P41597-2)
Test: 125I-MCP-1 radioligand binding assay, membranes from CCR2B-transfected CHO cells
Details: competition with 0.15 nM 125I-MCP-1, 90 minutes at 25° C.; Cheng-Prusoff
Protocol: Radioligand Binding Assay.
^125I-MCP binding assays performed in 96-well plates with 40 μg of protein per well. Compounds were dissolved and diluted in DMSO to 100× dilutions. A 10× concentration range of compounds was prepared in binding buffer (10% DSMO). Competition binding assay contained the following components in a total volume of 250 μl of the appropriate compound dilution (final concentration of 1% DMSO), 200 μl membranes from CCR2B-transfected CHO cells dissolved in binding buffer and 25 μl ^125I-MCP-1(Bolton and Hunter labeled, Amersham, specific activity=2000 Ci/mmol, 0.15 nM final). Binding buffer was composed of 25 mM HEPES, 5 mM MgCl2, 1 mM CaCl2, 0.5% protease-free bovine serum albumin, pH 7.4. After 90 minutes incubation at 25° C., membranes were harvested on GF/B filters -presoaked in 0.5% polyethylenimene, followeded by washing with buffer containing 25 mM HEPES, 5 mM MgCl2, 1 mM CaCl2, […], pH 7.4. Filter bound radioactivity was determined by liquid scintillation counting. EC50 values (μM) and Ki values (μM) were calculated. […] EC50 values and Ki values were calculated using non-linear regression in Graphpad Prism. […]

Row | Ki [nM] | Compound
12 | 170 | CCC(c1ccc(Cl)c(Cl)c1)n1c(-c2ccnc(N)n2)c[nH]c1=S (stereo not shown) [Compound 1]

Tested on: not given
Test: not given
Details: not given

Row | melting point [°C] | Compound
13 | 97.8 to 97.9 | CCCC(c1ccc(F)c(F)c1)n1c(-c2nnc(C)o2)c(COC)[nH]c1=S (stereo not shown) [Compound 10]
